Laboratory results published in the supplement of paper PMC10307832.

What was measured:
Assay in all cases: relative viability (nuclei count vs DMSO), 5 days (fraction); higher = more cells survive
Irinotecan + Alpelisib = compound: CCc1c2c(nc3ccc(OC(=O)N4CCC(N5CCCCC5)CC4)cc13)-c1cc3c(c(=O)n1C2)COC(=O)[C@]3(O)CC [Irinotecan] + Cc1nc(NC(=O)N2CCC[C@H]2C(N)=O)sc1-c1ccnc(C(C)(C)C(F)(F)F)c1 [Alpelisib] (partner 2 µM)
Procedure, shortened: (§1)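 Nuclei were stained with Hoechst during a one-step fixation (final 0.05% Triton X-100, 1% formaldehyde, 1 ug/ml Hoechst) carried out 5 days after dosing, then counted on 4× images. The cells, lung cancer lines in 1536-well plates, had been dosed by pin tool the day after seeding with one drug alone or a fixed anchor-drug dose plus five library-drug doses (not always all listed) in √10 steps. Relative viability is the nuclei count in treated wells divided by that in vehicle wells, and each value is the median of duplicate plates.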

Irinotecan + Vorinostat = compound: CCc1c2c(nc3ccc(OC(=O)N4CCC(N5CCCCC5)CC4)cc13)-c1cc3c(c(=O)n1C2)COC(=O)[C@]3(O)CC [Irinotecan] + O=C(CCCCCCC(=O)Nc1ccccc1)NO [Vorinostat] (partner 1 µM)
Procedure, shortened: as §1

MK-8033 + Tozasertib = compound: Cn1cc(-c2cnc3ccc4ccc(CS(=O)(=O)NCc5ccccn5)cc4c(=O)c3c2)cn1 [MK-8033] + Cc1cc(Nc2cc(N3CCN(C)CC3)nc(Sc3ccc(NC(=O)C4CC4)cc3)n2)n[nH]1 [Tozasertib] (partner 0.1 µM)
Procedure, shortened: as §1

MK-8033 + Dasatinib = compound: Cn1cc(-c2cnc3ccc4ccc(CS(=O)(=O)NCc5ccccn5)cc4c(=O)c3c2)cn1 [MK-8033] + Cc1nc(Nc2ncc(C(=O)Nc3c(C)cccc3Cl)s2)cc(N2CCN(CCO)CC2)n1 [Dasatinib] (partner 0.075 µM)
Procedure, shortened: as §1

Cell Line | relative viability (Irinotecan + Alpelisib; first compound 0.6325 µM) | relative viability (Irinotecan + Alpelisib; first compound 2 µM) | relative viability (Irinotecan + Alpelisib; first compound 6.325 µM) | relative viability (Irinotecan + Alpelisib; first compound 20 µM) | relative viability (Irinotecan + Vorinostat; first compound 0.6325 µM) | relative viability (Irinotecan + Vorinostat; first compound 2 µM) | relative viability (Irinotecan + Vorinostat; first compound 6.325 µM) | relative viability (Irinotecan + Vorinostat; first compound 20 µM) | relative viability (MK-8033 + Tozasertib; first compound 0.02 µM) | relative viability (MK-8033 + Tozasertib; first compound 0.06325 µM) | relative viability (MK-8033 + Tozasertib; first compound 0.2 µM) | relative viability (MK-8033 + Tozasertib; first compound 0.6325 µM) | relative viability (MK-8033 + Tozasertib; first compound 2 µM) | relative viability (MK-8033 + Dasatinib; first compound 0.02 µM) | relative viability (MK-8033 + Dasatinib; first compound 0.06325 µM) | relative viability (MK-8033 + Dasatinib; first compound 0.2 µM) | relative viability (MK-8033 + Dasatinib; first compound 0.6325 µM) | relative viability (MK-8033 + Dasatinib; first compound 2 µM)
NCI-H322M | 0.576 | 0.37 | 0.282 | 0.395 | 0.734 | 0.886 | 0.732 | 0.32 | 0.522 | 0.464 | 0.427 | 0.449 | 0.44 | 0.283 | 0.243 | 0.238 | 0.263 | 0.261
201T | – | 0.87 | 0.465 | 0.331 | 0.325 | 0.81 | 0.426 | 0.28 | 0.864 | 0.899 | 0.82 | 0.909 | 0.86 | 0.646 | 0.62 | 0.573 | 0.533 | 0.614
RERF-LC-KJ | – | 0.835 | 0.501 | 0.454 | 0.462 | 0.586 | 0.48 | 0.271 | 0.493 | 0.485 | 0.457 | 0.393 | 0.408 | 0.648 | 0.742 | 0.752 | 0.631 | 0.746
NCI-H1651 | 0.862 | 0.705 | 0.246 | 0.205 | 0.362 | 0.533 | 0.364 | 0.158 | 0.746 | 0.667 | 0.734 | 0.524 | 0.557 | 0.412 | 0.331 | 0.285 | 0.433 | 0.388
NCI-H2405 | – | 0.678 | 0.291 | 0.0889 | – | 0.956 | 0.307 | 0.195 | 0.735 | 0.726 | 0.724 | 0.734 | 0.789 | 0.185 | 0.202 | 0.228 | 0.213 | 0.21
NCI-H727 | 0.324 | 0.433 | 0.354 | 0.422 | 1.03 | 0.731 | 0.616 | 0.641 | 0.577 | – | 0.714 | 0.465 | 0.61 | 0.363 | – | 0.464 | 0.435 | 0.322
EMC-BAC-2 | 0.483 | 0.28 | 0.165 | 0.181 | 0.224 | 0.297 | 0.283 | 0.225 | 0.295 | 0.254 | 0.281 | 0.265 | 0.298 | 0.324 | 0.325 | 0.327 | 0.33 | 0.339
LXF-289 | 0.994 | 0.504 | 0.273 | 0.214 | 0.724 | 0.688 | 0.41 | 0.195 | 0.187 | 0.148 | 0.157 | 0.203 | 0.179 | 0.197 | 0.213 | 0.208 | 0.189 | 0.215
HCC-827 | 0.522 | 0.252 | 0.203 | 0.233 | 0.721 | 0.766 | 0.281 | 0.236 | 0.412 | – | 0.402 | 0.4 | 0.401 | 0.334 | 0.114 | 0.342 | 0.283 | 0.304
